Measurements from PMC6206206, “Behavioral and Pharmacokinetic Profile of Indole-Derived Synthetic Cannabinoids JWH-073 and JWH-210 as Compared to the Phytocannabinoid Δ^9-THC in Rats” (Frontiers in Neuroscience, 2018).

Tests used:
Wistar rats [1] = assay: Open field test (locomotor activity, thigmotaxis, time in center); format: in vivo; conditions: for locomotion in 5 min time intervals (open field): 1 h after administration, vs vehicle
Method: (§1) All behavioral experiments were performed 1 h after sc. drugs administration.
A square black plastic open field arena (68 × 68 × 30 cm) was placed in a soundproof and diffusely lit room. Each of animals was placed into the center of the arena, in a novel unfamiliar environment, and 1 h after drug administration the behavior was video-recorded for 30 min using the system EthoVision Color pro v. 3.0 (Noldus, NL). Locomotor activity was subsequently analyzed within 5 min blocks/time intervals (1–6). The calculation of the data was performed in the EthoVision software and corrected (smoothed) for movement deviations of < 3 cm. Initially total distance traveled per time block was calculated and data were plotted in the graphs. To evaluate the spatial characteristics of the locomotor activity such as thigmotaxis and time spent in the center of arena, the arena was virtually divided into 5 × 5 identical square zones with 16 located peripherally and nine centrally. Frequency (f) of appearances of the animal in different zones of the arena was used to calculate thigmotaxis (i) (i = ∑fperipheralzones / ∑fallzones) which is a number (value varying from 0 to 1) indicating the probability of appearance in peripheral zones. Time spent in the center of the arena (Tcenter) was calculated Tcenter = ∑timecentralzones (Balikova et al., [2014]; Horsley et al., [2016]; Palenicek et al., [2016]; Tyls et al., [2016]; Hlozek et al., [2017]; Sichova et al., [2017]; Stefkova et al., [2017]).
To evaluate the effect on the locomotion measured in 5 min intervals, two-way repeated measures ANOVA analysis (factor 1: drug; factor 2: time intervals) was used in software system IBM SPSS version 22. Significant main effects and interaction two-way repeated measures ANOVAs were followed with pairwise comparisons using independent t-test. For repeated measures ANOVAs, where Mauchly's test of sphericity was significant, Greenhouse-Geisser [Greenhouse-Geisser estimate of sphericity (ε) < 0.75 or Huynh-Feldt (ε) >0.75] correction are reported. Degrees of freedom were rounded to whole number for presentational purposes. For independent t-test, where Levene's test for equality of variances was significant, statistics corrected for unequal variances are given p < 0.05 (two tailed) was considered the minimal criterion for statistical significance. For multiple comparisons, t-test was used with Bonferroni correction. The total length of the trajectory over 30-min, thigmotaxis and time in the center, ASR, habituation and PPI were analyzed by one-way ANOVA analysis by using software STATISTICA version 9.0. Where appropriate, ANOVA analyses were followed by the Tukey post-hoc test. Statistical significance was set at p < 0.05 for all analyses.

Wistar rats [2] = assay: Prepulse inhibition (PPI) of acoustic startle response (ASR); format: in vivo; conditions: for alteration of ASR or PPI by acute treatment: all doses tested, sc., 1 h after administration
Method: as §1
The PPI of ASR took place in two ventilated startle chambers (SR-LAB, San Diego Instruments, California, USA) which were calibrated to ensure equivalent stabilimeter sensitivity between the chambers. The test consists of acclimatization and two sessions, as previuosly described (Direnberger et al., [2012]; Palenicek et al., [2016]; Tyls et al., [2016]; Hlozek et al., [2017]; Sichova et al., [2017]; Stefkova et al., [2017]). Briefly, acclimatization was performed 2 days before the test, when drug-free rats were habituated in 5 min session with five presentations of pulse alone stimuli (115 dB/20 ms) over background white noise (75 dB). On the day of test, the compounds or vehicle were administered sc. 1 h prior to PPI/ASR testing. After acclimatization (5 min with 75 dB background noise), the test started with a short session of six 40 ms 125 dB pulse trials to establish baseline ASR. It was followed by the second session consisting of trials presented in a pseudorandom order: (1) single pulse alone: 40 ms 125 dB; (2) trial of prepulse-pulse: 20 ms prepulse of 83 dB presented 30, 60, and 120 ms (average 70 ms) before 40 ms 125 dB pulse; (C) 60 ms no stimulus. Finally, six […] 125 dB pulse trials were delivered. Habituation was calculated by the percentage reduction in ASR from the initial six, to the final six pulse trials. PPI was calculated as: [100–(mean prepulse–pulse trials/mean pulse alone trials)^*100]. ASR was derived from mean pulse alone trials. Animals with an AVG response lower than 10 were excluded from further analysis as non-responders.
To evaluate the effect on the locomotion measured in 5 min intervals, two-way repeated measures ANOVA analysis (factor 1: drug; factor 2: time intervals) was used in software system IBM SPSS version 22. […] The total length of the trajectory over 30-min, thigmotaxis and time in the center, ASR, habituation and PPI were analyzed by one-way ANOVA analysis by using software STATISTICA version 9.0. […]

[3] = test system: cannabinoid CB1 receptors; conditions: cited from earlier work
mice = conditions: 3–30 mg/kg; ref Marshell et al., 2014; cited from earlier work
[4] = Serum levels of JWH-073 and JWH-210 after sc. administration (LC-MS)
[5] = Serum levels of Δ^9-THC and its metabolites after sc. administration (GC-MS); conditions: after Δ^9-THC 3 mg/kg sc.; for detectability in serum over the measurement intervals: 30 min, 1, 2, 4, 8, 24 h; for maximum serum concentration (Mean ± SEM): n = 6
[6] = 3 mg/kg sc., vs control, p < 0.01

Q: Which results are given for `CCCCn1cc(C(=O)c2cccc3ccccc23)c2ccccc21` [JWH-073, (1-butylindol-3-yl)-naphthalen-1-ylmethanone]?
A: locomotion in 5 min time intervals (open field) (Wistar rats [1]; 0.1 mg/kg sc.): significantly increased locomotor activity at the 5-10 and 10-15 min time blocks; locomotion in 5 min time intervals (open field) (Wistar rats [1]; 0.5 mg/kg sc.): increased locomotion at 0–5, 5–10, 10–15, and 20–25 min onset; total length of the trajectory over 30-min (total locomotor activity) (Wistar rats [1]; 0.5 mg/kg sc., vs control group, p < 0.05): significantly increased locomotor activity; locomotion in 5 min time intervals (open field) (Wistar rats [1]; 5 mg/kg sc.): reduced the locomotor activity at 15–20 min time block; thigmotaxis (probability of appearance in peripheral zones) (Wistar rats [1]; 0.1, 0.5 and 5 mg/kg sc.): neither JWH-073 nor JWH-210 modified the thigmotaxis; time spent in the central zones of the open field (Wistar rats [1]; 0.1, 0.5 and 5 mg/kg sc.): neither JWH-073 nor JWH-210 modified; alteration of ASR or PPI by acute treatment (Wistar rats [2]): did not find significant alteration; CB1 binding affinity relative to Δ^9-THC (fold higher) ([3]; vs Δ^9-THC, ref Wiley et al., 1998, Aung et al., 2000, Brents et al., 2012): four-fold higher; locomotor activity (mice): dose-dependent reduced locomotor activity; detectability in serum over the measurement intervals ([4]; 0.5 mg/kg sc., 30 min, 1, 2, 4, 8, 24 h): detectable at all measurement intervals; maximum serum concentration (Mean ± SEM) ([4]; 0.5 mg/kg sc., rat serum, n = 8): 1.84 ± 0.06 ng/mL; Tmax ([4]; male, Wistar, rat, serum, sc, 0.5 mg/kg): 4 h; concentration at 24 h ([4]; male, Wistar, rat, serum, subcutaneous, 0.5 mg/kg): 0.41 ± 0.19 ng/mL

Q: Which results are given for `CCCCCc1cc(O)c2c(c1)OC(C)(C)[C@@H]1CCC(C(=O)O)=C[C@@H]21` [THC-COOH]?
A: detectability in serum over the measurement intervals [5]: detectable as Δ^9-THC at all intervals; time of maximum serum concentration ([5]; rat serum): 1 h; maximum serum concentration (Mean ± SEM) ([5]; rat serum): 10.5 ± 7.27 ng/mL

Q: Which “thigmotaxis (probability of appearance in peripheral zones)” value (Wistar rats [1]; [6]) does the source give for `CCCCCc1cc(O)c2c(c1)OC(C)(C)[C@@H]1CCC(C)=C[C@@H]21` [Δ^9-THC, Δ9-tetrahydrocannabinol] here?
A: The value was “decreased thigmotaxis”.

Q: What about the “time spent in the center of the open field arena” value (Wistar rats [1]; [6]) of the same compound?
A: The value was “increased time spent in central zone”.

Q: And the “total trajectory in the open field test” value (Wistar rats [1]; 1 or 3 mg/kg sc.)?
A: The value was “did not affect the total trajectory”.

Q: What about the “locomotion in 5 min time intervals (open field)” value (Wistar rats [1]; 1 or 3 mg/kg sc.) of the same compound?
A: The value was “neither a main effect of drug nor drug × time interval interaction were found”.

Q: What about the “prepulse inhibition (PPI), post-hoc” value (Wistar rats [2]; 1 mg/kg sc., p = 0.06) of the same compound?
A: The value was “slight not significant decrease of PPI”.

Q: What about the “alteration of ASR or PPI by acute treatment” value (Wistar rats [2]) of the same compound?
A: The value was “did not find significant alteration”.

Q: And the Ki ([3]; ref Huffman et al., 2005, read-out: Ki, affinity for central and peripheral cannabinoid CB1 receptors)?
A: The Ki was 41 ± 2 nM.

Q: And the “detectability in serum over the measurement intervals” value [5]?
A: The value was “detectable as Δ^9-THC at all intervals”.

Q: And the “time of maximum serum concentration” value ([5]; rat serum)?
A: The value was 1 h.

Q: And the “time of second serum peak” value ([5]; rat serum)?
A: The value was 8 h.

Q: And the “maximum serum concentration (Mean ± SEM)” value ([5]; rat serum)?
A: Its value is 12.1 ± 3.06 ng/mL.
